According to ChEMBL document CHEMBL4828718, “Synthesis and Antifungal Activity Evaluation of Phloeodictine Analogues” (J Nat Prod, 2021):
In brackets after ≈: the same amount, converted by molar mass. Activity calls are given as the source filed them. The calls are words filed in the database; no cut-off is given here.

Legend:
[1] = test system: Pichia kudriavzevii; assay: Fungicidal activity against Candida krusei ATCC 6258 assessed as fungal growth inhibition incubated for 18 to 24 hrs by alamar blue assay; format: functional
[2] = test system: Vero; assay: Cytotoxicity against African green monkey Vero cells assessed as reduction in cell viability incubated for 48 hrs by neutral red dye based assay; design: species or system Chlorocebus sabaeus
[3] = test system: Nakaseomyces glabratus; assay: Fungicidal activity against Candida glabrata ATCC 90030 assessed as fungal growth inhibition incubated for 18 to 24 hrs by alamar blue assay; format: functional
[4] = test system: Cryptococcus neoformans; assay: Antifungal activity against Cryptococcus neoformans ATCC 90113 assessed as fungal growth inhibition incubated for 72 hrs by alamar blue assay; format: functional
[5] = test system: Cryptococcus neoformans; assay: Fungicidal activity against Cryptococcus neoformans ATCC 90113 assessed as fungal growth inhibition incubated for 72 hrs by alamar blue assay; format: functional
[6] = test system: Candida albicans; assay: Fungicidal activity against Candida albicans ATCC 90028 assessed as fungal growth inhibition incubated for 18 to 24 hrs by alamar blue assay; format: functional
[7] = test system: Nakaseomyces glabratus; assay: Antifungal activity against Candida glabrata ATCC 90030 assessed as fungal growth inhibition incubated for 18 to 24 hrs by alamar blue assay; format: functional
[8] = test system: Candida albicans; assay: Antifungal activity against Candida albicans ATCC 90028 assessed as fungal growth inhibition incubated for 18 to 24 hrs by alamar blue assay; format: functional
[9] = test system: Aspergillus fumigatus; assay: Antifungal activity against Aspergillus fumigatus ATCC 90906 assessed as fungal growth inhibition incubated for 72 hrs by alamar blue assay; format: functional
[10] = test system: Pichia kudriavzevii; assay: Antifungal activity against Candida krusei ATCC 6258 assessed as fungal growth inhibition incubated for 18 to 24 hrs by alamar blue assay; format: functional
[11] = test system: Aspergillus fumigatus; assay: Fungicidal activity against Aspergillus fumigatus ATCC 90906 assessed as fungal growth inhibition incubated for 72 hrs by alamar blue assay; format: functional
[12] = Pichia kudriavzevii, ATCC 6258, time 18-24 hrs, read-out: MFC
[13] = Chlorocebus sabaeus, Vero, 48 h
[14] = Nakaseomyces glabratus, ATCC 90030, time 18-24 hrs, read-out: MFC
[15] = Cryptococcus neoformans, ATCC 90113, 72 h, read-out: MIC
[16] = Cryptococcus neoformans, ATCC 90113, 72 h, read-out: MFC
[17] = Candida albicans, ATCC 90028, time 18-24 hrs, read-out: MFC
[18] = Nakaseomyces glabratus, ATCC 90030, time 18-24 hrs, read-out: MIC
[19] = Candida albicans, ATCC 90028, time 18-24 hrs, read-out: MIC
[20] = Aspergillus fumigatus, ATCC 90906, 72 h, read-out: MIC
[21] = Pichia kudriavzevii, ATCC 6258, time 18-24 hrs, read-out: MIC
[22] = Aspergillus fumigatus, ATCC 90906, 72 h, read-out: MFC

Row | SMILES | MFC [1, 12] [µM] | IC50 [2, 13] [µM] | MFC [3, 14] [µM] | MIC [4, 15] [µM] | MFC [5, 16] [µM] | MFC [6, 17] [µM] | MIC [7, 18] [µM] | MIC [8, 19] [µM] | MIC [9, 20] [µM] | MIC [10, 21] [µM] | MFC [11, 22] [µM] | also measured
1 | CCCCCCCCCCCCCCC1(O)C(C)=C(C)C2=[N+](Cc3ccc([N+](=O)[O-])cc3)CCCN21 (centres undefined) | 1.7 | 36 | 2.1 | 1.4 | 1.4 | 4.3 | 2.1 | 4.3 | 5 | 1.7 | 5 | –
2 | CCCCCCCCCCCCCCC1(O)C(C)=C(C)C2=[N+](Cc3cccc(OC)c3)CCCN21 (centres undefined) | 3 | 24 | 2.1 | 1.1 | 1.1 | 3 | 2.1 | 3 | 3 | 2.1 | 3 | –
3 | CCCCCCCCCCCCCCC1(O)C(C)=C(C)C2=[N+](C)CCCN21 (centres undefined) | 2 | 39 | 5 | 0.99 | 2.4 | 6.5 | 4.2 | 5 | 5 | 2 | 5 | –
4 | CCCCCCCCCCCCCCC1(O)C(C)=C(C)C2=[N+](CC(=O)c3cccc(Cl)c3)CCCN21 (centres undefined) | 6.2 | 7.7 | 4.9 | 3.7 | 3.7 | 18 | 4.9 | 18 | – | 6.2 | – | MIC [9]: inactive; MFC [11]: inactive
5 | C[C@@H]1[C@H](O)[C@@H](C)/C=C/C=C/C=C/C=C/C=C/C=C/C=C/[C@H](O[C@@H]2O[C@H](C)[C@@H](O)[C@H](N)[C@@H]2O)C[C@@H]2O[C@](O)(C[C@@H](O)C[C@@H](O)[C@H](O)CC[C@@H](O)C[C@@H](O)CC(=O)O[C@H]1C)C[C@H](O)[C@H]2C(=O)O [AMPHOTERICIN B] | 1.3 (≈ 1.2 µg/mL) | 6.8 | 0.65 (≈ 0.601 µg/mL) | 0.65 (≈ 0.601 µg/mL) | 0.65 (≈ 0.601 µg/mL) | 0.97 (≈ 0.896 µg/mL) | 0.65 (≈ 0.601 µg/mL) | 0.77 (≈ 0.712 µg/mL) | 2.3 (≈ 2.13 µg/mL) | 1.3 (≈ 1.2 µg/mL) | 4 (≈ 3.7 µg/mL) | –
6 | CCCCCCCCCCCCCCC1(O)C(C)=C(C)C2=[N+](Cc3cnnn3Cc3ccccc3)CCCN21 (centres undefined) | 2.8 | > 40 | 4.7 | 1.3 | 2 | 6.8 | 3.4 | 5.4 | 6.8 | 2.8 | 6.8 | –
7 | CCCCCCCCCCCCCCC1(O)c2ccccc2C2=[N+](C)CCCN21 (centres undefined) | 13 | 42 | 16 | 6.4 | 6.4 | 4.3 | 13 | 4.3 | 35 | 13 | 35 | –
8 | CCCCCCCCCCCCCCC1(O)C(C)=C(C)C2=[N+](Cc3ccc(Cl)cc3)CCCN21 (centres undefined) | 2.1 | 42 | 2.1 | 3.7 | 3.7 | 3.7 | 2.1 | 3.7 | 4.4 | 2.1 | 4.4 | –
9 | CCCCCCCCCCCCCCc1c(C)c(C)cn1CCCNCc1ccccc1 | – | 42 | – | – | – | – | – | – | – | – | – | MFC ([1]; time 18-24 hrs): inactive; MFC ([3]; time 18-24 hrs): inactive; MIC [4]: inactive; MFC [5]: inactive; MFC ([6]; time 18-24 hrs): inactive; MIC ([7]; time 18-24 hrs): inactive; MIC ([8]; time 18-24 hrs): inactive; MIC [9]: inactive; MIC ([10]; time 18-24 hrs): inactive; MFC [11]: inactive
10 | CCCCCCCCCCCCCCC1(O)C(C)=C(C)C2=[N+](Cc3ccc(OC)cc3)CCCN21 (centres undefined) | 2.7 | 24 | 3 | 1.1 | 1.4 | 3.7 | 3 | 3.7 | 3.7 | 1.8 | 5.1 | –
11 | CCCCCCCCCCCCCCC1(O)C(C)=C(C)C2=[N+](CC#N)CCCN21 (centres undefined) | 4.4 | > 52 | 8.7 | 1 | 1 | 10 | 6 | 10 | 6 | 3.5 | 6 | –
12 | CCCCCCCCCCCCCCC1(O)C(C)=C(C)C2=[N+](Cc3ccc(C(F)(F)F)cc3)CCCN21 (centres undefined) | 2 | > 42 | 2 | 1 | 3.5 | 7 | 2 | 5.5 | 17 | 2 | 19 | –
13 | CCCCCCCCCCCCCCC1(O)C(C)=C(C)C2=[N+](Cc3ccc(F)cc3F)CCCN21 (centres undefined) | 1.8 | 28 | 1.8 | 0.88 | 1.1 | 3.7 | 1.8 | 3.7 | 3 | 1.8 | 3.7 | –
14 | CCCCCCCCCCCCCCC1(O)C(C)=C(C)C2=[N+](C)c3ccccc3CN21 (centres undefined) | – | > 45 | – | 2.4 | 2.4 | – | – | – | – | – | – | MFC ([1]; time 18-24 hrs): inactive; MFC ([3]; time 18-24 hrs): inactive; MFC ([6]; time 18-24 hrs): inactive; MIC ([7]; time 18-24 hrs): inactive; MIC ([8]; time 18-24 hrs): inactive; MIC [9]: inactive; MIC ([10]; time 18-24 hrs): inactive; MFC [11]: inactive
15 | CCCCCCCCCCCCCCC1(O)C(C)=C(C)C2=[N+](Cc3cc(OC)c(OC)c(OC)c3)CCCN21 (centres undefined) | 1.9 | > 40 | 4 | 1.6 | 1.6 | 5.3 | 4 | 5.3 | 4 | 1.9 | 4 | –
16 | CCCCCCCCCCCCCCc1c(C)c(C)cn1CCCNC | 6.9 (≈ 2.5 µg/mL) | 35 | 6.9 (≈ 2.5 µg/mL) | 3.3 (≈ 1.2 µg/mL) | 6.9 (≈ 2.5 µg/mL) | 12 (≈ 4.35 µg/mL) | 6.9 (≈ 2.5 µg/mL) | 12 (≈ 4.35 µg/mL) | 21 (≈ 7.62 µg/mL) | 6.9 (≈ 2.5 µg/mL) | 23 (≈ 8.34 µg/mL) | –
17 | CCCCCCCCCCCCCCC1(O)C(C)=C(C)C2=[N+](Cc3ccc(Br)cc3)CCCN21 (centres undefined) | 2 | 35 | 2 | 3.4 | 6 | 5.4 | 2 | 5.4 | 5.4 | 2 | 8.2 | –
18 | CCCCCCCCCCCCCCC1(O)C(C)=C(C)C2=[N+](Cc3ccc(C#N)cc3)CCCN21 (centres undefined) | 2.1 | 29 | 2.1 | 1.1 | 1.1 | 4.5 | 2.1 | 4.5 | 4.5 | 2.1 | 4.5 | –
19 | CCCCCCCCCCCCCCC1(O)C(C)=C(C)C2=[N+](Cc3cccc(C(F)(F)F)c3)CCCN21 (centres undefined) | 2.8 | 27 | 2 | 1.3 | 1.7 | 4.2 | 2 | 4.2 | 4.2 | 2.8 | 6.3 | –
20 | CCCCCCCCCCCCCCC1(O)C(C)=C(C)C2=[N+](CC(=O)NCCCN)CCCN21 (centres undefined) | 12 | > 45 | 15 | 3.8 | 3.8 | 18 | 12 | 12 | 20 | 7.5 | 30 | –
21 | CCCCCCCCCCCCCCC1(O)C(C)=C(C)C2=[N+](Cc3cc(C(F)(F)F)cc(C(F)(F)F)c3)CCCN21 (centres undefined) | 3.7 | > 37 | 2.5 | 1.8 | 2.5 | – | 2.5 | 30 | – | 3.7 | – | MFC ([6]; time 18-24 hrs): inactive; MIC [9]: inactive; MFC [11]: inactive
22 | CCCCCCCCCCCCCCC1(O)C(C)=C(C)C2=[N+](Cc3ccccc3)CCCN21 (centres undefined) | 2.2 | 25 | 2.2 | 1.5 | 1.5 | 3.9 | 2.2 | 3.9 | 4.7 | 2.2 | 4.7 | –
23 | CCCCCCCCCCCCCCC1(O)C(C)=C(C)C2=[N+](CC(=O)O)CCCN21 (centres undefined) | – | > 50 | – | 5.4 | 5.4 | – | – | – | – | – | – | MFC ([1]; time 18-24 hrs): inactive; MFC ([3]; time 18-24 hrs): inactive; MFC ([6]; time 18-24 hrs): inactive; MIC ([7]; time 18-24 hrs): inactive; MIC ([8]; time 18-24 hrs): inactive; MIC [9]: inactive; MIC ([10]; time 18-24 hrs): inactive; MFC [11]: inactive
24 | CCCCCCCCCCCCCCC1(O)C(C)=C(C)C2=[N+](Cc3ccccc3)CCCN21.[Cl-] (centres undefined) | – | – | – | – | – | – | – | – | – | – | – | MFC ([1]; time 18-24 hrs): 4.3 µM; IC50 ([2]; vero): 36 µM; MFC ([3]; time 18-24 hrs): 4.3 µM; MIC [4]: 2 µM; MFC [5]: 2 µM; MFC ([6]; time 18-24 hrs): 6.7 µM; MIC ([7]; time 18-24 hrs): 4.3 µM; MIC ([8]; time 18-24 hrs): 6.7 µM; MIC [9]: 5.9 µM; MIC ([10]; time 18-24 hrs): 4.3 µM; MFC [11]: 5.9 µM
